Results from PubChem BioAssay (NCI).
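Exposure lasted 48 hours, with cells grown in 96-well plates and compounds tested at five concentrations. GI50 = concentration required for 50% inhibition of growth. TGI is the concentration that stops growth completely.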

Tests used:
Test in all cases: NCI anticancer screen, dose series, 48 h
MOLT-4 leukemia = test system: MOLT-4 leukemia
NCI-H460 lung = test system: NCI-H460 lung
A498 renal = test system: A498 renal
HOP-62 NSCLC = test system: HOP-62 NSCLC
HCT-116 colon = test system: HCT-116 colon
OVCAR-3 ovarian = test system: OVCAR-3 ovarian
HT29 colon = test system: HT29 colon
MDA-MB-231 breast = test system: MDA-MB-231 breast
COLO 205 colon = test system: COLO 205 colon
MDA-MB-435 = test system: MDA-MB-435
U251 CNS = test system: U251 CNS
SF-295 CNS = test system: SF-295 CNS
UACC-62 melanoma = test system: UACC-62 melanoma
SF-268 CNS = test system: SF-268 CNS
RPMI-8226 leukemia = test system: RPMI-8226 leukemia
PC-3 prostate = test system: PC-3 prostate

Row | Structure (SMILES) | TGI (MOLT-4 leukemia) | TGI (NCI-H460 lung) | TGI (A498 renal) | TGI (HOP-62 NSCLC) | TGI (HCT-116 colon) | TGI (OVCAR-3 ovarian) | TGI (HT29 colon) | TGI (MDA-MB-231 breast) | TGI (COLO 205 colon) | TGI (MDA-MB-435) | TGI (U251 CNS) | TGI (SF-295 CNS) | TGI (UACC-62 melanoma) | TGI (SF-268 CNS) | TGI (RPMI-8226 leukemia) | TGI (PC-3 prostate) | GI50 (HCT-116 colon) | GI50 (OVCAR-3 ovarian) | GI50 (SF-295 CNS) | GI50 (SF-268 CNS)
1 | CC1=NN(c2nc(N)nc(C/C(N)=N/O)n2)C(C)(C)C1 | > 100 µM | > 100 µM | > 100 µM | > 100 µM | > 100 µM | > 100 µM | > 100 µM | > 100 µM | > 100 µM | > 100 µM | > 100 µM | > 100 µM | > 100 µM | > 100 µM | > 100 µM | – | – | – | – | –
2 | NC1=NN(c2ccccc2)C(=O)C1C(=O)C(=O)Nc1nccs1 (configuration not stated) | > 100 µM | > 100 µM | > 100 µM | > 100 µM | > 100 µM | > 100 µM | > 100 µM | – | > 100 µM | – | > 100 µM | > 100 µM | > 100 µM | > 100 µM | > 100 µM | – | – | – | – | –
3 | CC(C)Oc1cccc(N2C(=NCCc3c[nH]c4ccccc34)Nc3ccncc3S2(=O)=O)c1 | > 100 µM | > 100 µM | > 100 µM | > 100 µM | > 100 µM | > 100 µM | 20.3 µM | – | 4.08 µM | > 100 µM | > 100 µM | > 100 µM | > 100 µM | > 100 µM | > 100 µM | > 100 µM | – | – | – | –
4 | CCCCCCCCCC(=O)OCC1OC(n2cc(F)c(=O)[nH]c2=O)C(NC(=O)OCc2ccccc2)C(OC(=O)CCCCCCCCC)C1O (configuration not stated) | > 100 µM | – | > 100 µM | > 100 µM | 28.1 µM | 48.5 µM | 35 µM | – | > 100 µM | – | 30.3 µM | > 100 µM | > 100 µM | > 100 µM | 65.2 µM | – | – | – | – | –
5 | Cc1ccc(C(=O)/C=C/c2cccc([N+](=O)[O-])c2)cc1 | 7.39 µM | > 100 µM | > 100 µM | > 100 µM | 31.8 µM | > 100 µM | > 66.1 µM | – | > 55.9 µM | – | > 55.5 µM | > 100 µM | > 100 µM | > 100 µM | > 78.8 µM | – | – | – | – | –
6 | COc1ccc(NC(=O)C(C)Oc2ccc(OCC3CCCCC3)cc2)cc1 (configuration not stated) | > 100 µM | > 100 µM | > 100 µM | – | > 100 µM | > 100 µM | > 100 µM | – | – | – | > 100 µM | – | > 100 µM | > 100 µM | – | – | – | – | – | –
7 | COc1ccc(/C=C2\CCC(CCN(C)C)(C3=CCCC3)C2=O)cc1Br (configuration not stated) | 6.01 µM | 25.6 µM | 23.5 µM | 30.9 µM | 17.1 µM | 19.3 µM | 7.14 µM | – | 3.01 µM | – | 19 µM | 13.7 µM | – | 23 µM | 5.5 µM | – | – | – | – | –
8 | CCN(CC)Cc1ccc(C(=S)Nc2ccc(C)cc2)s1 | 41.6 µM | 30.8 µM | 27.2 µM | 34.5 µM | 28.7 µM | 70.9 µM | 14.4 µM | – | 31.7 µM | 26.5 µM | 30 µM | 28.3 µM | 28.1 µM | 4.42 µM | 46.8 µM | 31.3 µM | – | – | – | –
9 | O=c1cc(-c2ccco2)[nH]c2cc3c(cc12)OCO3 | > 100 µM | > 100 µM | > 100 µM | 43.8 µM | > 100 µM | > 100 µM | > 100 µM | – | 78.5 µM | – | > 100 µM | > 100 µM | > 100 µM | > 100 µM | > 100 µM | – | 39.9 µM | 42.9 µM | 28.1 µM | 42.1 µM
10 | C=C1C(OC(=O)/C=C/c2ccccc2)CC(OC(C)=O)C2(C)C1CC1CC(OC(C)=O)C(C)=C(C(OC(C)=O)C2OC(C)=O)C1(C)C (configuration not stated) | > 100 µM | > 100 µM | > 100 µM | > 100 µM | > 100 µM | – | > 100 µM | – | > 100 µM | – | > 100 µM | > 100 µM | > 100 µM | > 100 µM | > 100 µM | – | – | – | – | –
11 | CC(C)(C)OC(=O)NCCCC(=O)NC1(c2cc3ccccc3s2)CCCCC1 | 34.4 µM | 40.1 µM | 51 µM | 41.5 µM | 30.1 µM | 39.2 µM | 30.6 µM | – | 29 µM | 33.1 µM | – | 34 µM | 24.3 µM | 39.7 µM | 29.6 µM | – | – | – | – | –
12 | CN(C)c1snc2c1c(=O)n(C)c(=O)n2C | > 100 µM | > 100 µM | > 100 µM | > 100 µM | > 100 µM | > 100 µM | > 100 µM | – | > 100 µM | – | > 100 µM | > 100 µM | > 100 µM | > 100 µM | > 100 µM | – | – | – | – | –
13 | CCCCNC(=O)C1C2CCC(O2)C1C(=O)O (configuration not stated) | 40.4 µM | > 100 µM | 32.4 µM | > 100 µM | 25.2 µM | 31.5 µM | 55.4 µM | – | 32.5 µM | – | 29 µM | 74.7 µM | 43.4 µM | 45.1 µM | 42 µM | – | – | – | – | –
14 | COc1ccc(/C(=C/n2ccnc2)C(O)c2ccc(OC)c(OC)c2)cc1OC (configuration not stated) | > 100 µM | > 100 µM | > 100 µM | > 100 µM | – | > 100 µM | > 100 µM | – | > 100 µM | – | > 100 µM | > 100 µM | – | > 100 µM | > 100 µM | – | – | – | – | –
15 | CCc1cc(CCC(=O)Nc2ccccc2[N+](=O)[O-])[nH]c(=S)n1 | > 100 µM | > 100 µM | – | > 100 µM | > 100 µM | > 100 µM | > 100 µM | – | > 100 µM | – | > 100 µM | > 100 µM | > 100 µM | > 100 µM | – | – | – | – | – | –
16 | CCOC(OCC)N1C(=O)C2(C(OCC)OCC)CC3C(OC(=O)N3N)c3cccc1c32 (configuration not stated) | > 100 µM | > 100 µM | > 100 µM | > 100 µM | > 100 µM | > 100 µM | > 100 µM | > 100 µM | > 100 µM | > 100 µM | > 100 µM | > 100 µM | > 100 µM | > 100 µM | > 100 µM | – | – | – | – | –
17 | C=CCN1/C(=C2\SC(=S)N(c3ccc(C)cc3)C2=O)Sc2c1nc[nH]c2=O | > 100 µM | > 100 µM | > 100 µM | > 100 µM | > 100 µM | > 100 µM | > 100 µM | – | > 100 µM | – | > 100 µM | > 100 µM | > 100 µM | > 100 µM | > 100 µM | – | – | – | – | –
